# Source: patent US20120202847A1, “Novel Tetrahydroisoquinoline Compounds” (priority 2009, published 2012)
# Target: T1, DGAT1 enzyme (Homo sapiens, UniProt O75907)
# T1 construct: made in house
# T1 sequence (O75907 1-488): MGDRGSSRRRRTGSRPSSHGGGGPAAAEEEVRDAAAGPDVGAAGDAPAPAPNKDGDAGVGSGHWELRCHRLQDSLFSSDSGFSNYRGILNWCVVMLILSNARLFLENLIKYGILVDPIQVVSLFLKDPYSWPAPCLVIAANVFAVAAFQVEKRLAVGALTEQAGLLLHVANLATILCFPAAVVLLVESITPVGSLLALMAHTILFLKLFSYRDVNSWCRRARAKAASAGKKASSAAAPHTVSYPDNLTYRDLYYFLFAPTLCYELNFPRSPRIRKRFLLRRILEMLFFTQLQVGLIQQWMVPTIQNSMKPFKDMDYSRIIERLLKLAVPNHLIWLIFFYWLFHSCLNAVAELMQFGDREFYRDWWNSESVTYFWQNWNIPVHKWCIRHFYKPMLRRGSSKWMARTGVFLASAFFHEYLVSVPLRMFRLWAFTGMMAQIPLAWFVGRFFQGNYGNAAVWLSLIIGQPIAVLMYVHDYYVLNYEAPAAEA
# Assay: DGAT1 inhibitory activity test
# Format: biochemical
# Details: test compound concentration of 0.05 μg/ml; [14C]-oleoyl-CoA, 23° C., 30 minutes; read-out: Inhibitory Rate
# Method: (1) Preparation of DGAT1 Enzyme
# DGAT1 enzyme was prepared and stored according to the method described in US2007/0249620.
# (2) DGAT1 Inhibitory Activity Test
# A reaction solution having the following composition was incubated at room temperature (23° C.) for 30 minutes: 175 mM Tris-HCl (pH 8.0), 8 mM MgCl2, 1 mg/ml BSA, 0.3 mM 1,2-dioleoyl-sn-glycerol (10-fold concentration of EtOH solution, 10% added), 10 μM [^14C]-oleoyl-CoA (approximately 50 mCi/mmol), 0.5% Triton X-100, the DGAT1 enzyme (10 μg) obtained in Test Example 1(1), and a test compound or vehicle (DMSO/MeOH, 7:3 solution, 5% added), 50 μl in total. A reaction stop solution […] consisting of isopropanol/1-heptane/water (80:20:2, v/v/v) was added to the reaction solution and stirred. Subsequently, water […] and 1-heptane (100 μl) were added thereto and stirred. The 1-heptane layer […] was spotted onto a TLC plate and developed with a developing solvent consisting of 1-hexane/diethyl ether/acetic acid (85:15:1, v/v/v). The radioactivity of the triglyceride fraction was quantified using BAS2500 Bio Image Analyzer (FUJIFILM) and compared with the control. The inhibitory activity of the test compound was calculated according to the formula shown below. In this context, the radioactivity at no reaction (0 minute incubation) was used as background.
# Inhibitory Rate=100−[(Radioactivity of sample supplemented with test compound)−(Background)]/[(Radioactivity of control)−(Background)]×100
row,Structure (SMILES),inhibition at 0.05 µg/mL [%]
1,"O=C(O)C[C@H]1CC[C@H](OC(=O)N2CCc3cc(NC(=O)Nc4ccc(F)cc4F)ccc3C2)CC1 [Example 1, trans-6-[3-(2,4-difluoro-phenyl)-ureido]-3,4-dihydro-1H-isoquinoline-2-carboxylic acid 4-carboxymethyl-cyclohexyl ester]",≥ 50
2,"O=C(O)C[C@H]1CC[C@H](OC(=O)N2CCc3cc(NC(=O)Nc4cccc(F)c4F)ccc3C2)CC1 [Example 3, trans-6-[3-(2,3-difluoro-phenyl)-ureido]-3,4-dihydro-1H-isoquinoline-2-carboxylic acid 4-carboxymethyl-cyclohexyl ester]",≥ 50
3,"O=C(O)C[C@H]1CC[C@H](OC(=O)N2CCc3cc(NC(=O)Nc4cc(F)ccc4F)ccc3C2)CC1 [Example 4, trans-6-[3-(2,5-difluoro-phenyl)-ureido]-3,4-dihydro-1H-isoquinoline-2-carboxylic acid 4-carboxymethyl-cyclohexyl ester]",≥ 50
4,"O=C(O)C[C@H]1CC[C@H](OC(=O)N2CCc3cc(NC(=O)Nc4c(F)cccc4F)ccc3C2)CC1 [Example 5, trans-6-[3-(2,6-difluoro-phenyl)-ureido]-3,4-dihydro-1H-isoquinoline-2-carboxylic acid 4-carboxymethyl-cyclohexyl ester]",≥ 50
5,"Cc1cccc(NC(=O)Nc2ccc3c(c2)CCN(C(=O)O[C@H]2CC[C@H](CC(=O)O)CC2)C3)c1F [Example 6, trans-6-[3-(2-fluoro-3-methyl-phenyl)-ureido]-3,4-dihydro-1H-isoquinoline-2-carboxylic acid 4-carboxymethyl-cyclohexyl ester]",≥ 50
6,"Cc1ccc(F)c(NC(=O)Nc2ccc3c(c2)CCN(C(=O)O[C@H]2CC[C@H](CC(=O)O)CC2)C3)c1 [Example 7, trans-6-[3-(2-fluoro-5-methyl-phenyl)-ureido]-3,4-dihydro-1H-isoquinoline-2-carboxylic acid 4-carboxymethyl-cyclohexyl ester]",≥ 50
7,"Cc1ccc(NC(=O)Nc2ccc3c(c2)CCN(C(=O)O[C@H]2CC[C@H](CC(=O)O)CC2)C3)c(F)c1 [Example 8, trans-6-[3-(2-fluoro-4-methyl-phenyl)-ureido]-3,4-dihydro-1H-isoquinoline-2-carboxylic acid 4-carboxymethyl-cyclohexyl ester]",≥ 50
8,"Cc1cccc(F)c1NC(=O)Nc1ccc2c(c1)CCN(C(=O)O[C@H]1CC[C@H](CC(=O)O)CC1)C2 [Example 9, trans-6-[3-(2-fluoro-6-methyl-phenyl)-ureido]-3,4-dihydro-1H-isoquinoline-2-carboxylic acid 4-carboxymethyl-cyclohexyl ester]",≥ 50
9,"O=C(O)C[C@H]1CC[C@H](OC(=O)N2CCc3cc(NC(=O)Nc4cccc(Cl)c4F)ccc3C2)CC1 [Example 10, trans-6-[3-(3-chloro-2-fluoro-phenyl)-ureido]-3,4-dihydro-1H-isoquinoline-2-carboxylic acid 4-carboxymethyl-cyclohexyl ester]",≥ 50
10,"O=C(O)C[C@H]1CC[C@H](OC(=O)N2CCc3cc(NC(=O)Nc4ccc(Cl)cc4F)ccc3C2)CC1 [Example 11, trans-6-[3-(4-chloro-2-fluoro-phenyl)-ureido]-3,4-dihydro-1H-isoquinoline-2-carboxylic acid 4-carboxymethyl-cyclohexyl ester]",≥ 50
11,"O=C(O)C[C@H]1CC[C@H](OC(=O)N2CCc3cc(NC(=O)Nc4cc(Cl)ccc4F)ccc3C2)CC1 [Example 12, trans-6-[3-(5-chloro-2-fluoro-phenyl)-ureido]-3,4-dihydro-1H-isoquinoline-2-carboxylic acid 4-carboxymethyl-cyclohexyl ester]",≥ 50
12,"O=C(O)C[C@H]1CC[C@H](OC(=O)N2CCc3cc(NC(=O)Nc4c(F)cccc4Cl)ccc3C2)CC1 [Example 13, trans-6-[3-(2-chloro-6-fluoro-phenyl)-ureido]-3,4-dihydro-1H-isoquinoline-2-carboxylic acid 4-carboxymethyl-cyclohexyl ester]",≥ 50
13,"O=C(O)C[C@H]1CC[C@H](OC(=O)N2CCc3cc(NC(=O)Nc4ccc(F)c(F)c4F)ccc3C2)CC1 [Example 14, trans-6-[3-(2,3,4-trifluoro-phenyl)-ureido]-3,4-dihydro-1H-isoquinoline-2-carboxylic acid 4-carboxymethyl-cyclohexyl ester]",≥ 50
14,"O=C(O)C[C@H]1CC[C@H](OC(=O)N2CCc3cc(NC(=O)Nc4c(F)cc(F)cc4F)ccc3C2)CC1 [Example 15, trans-6-[3-(2,4,6-trifluoro-phenyl)-ureido]-3,4-dihydro-1H-isoquinoline-2-carboxylic acid 4-carboxymethyl-cyclohexyl ester]",≥ 50
15,"O=C(O)C[C@H]1CC[C@H](OC(=O)N2CCc3cc(NC(=O)Nc4ccc(C(F)(F)F)cc4F)ccc3C2)CC1 [Example 16, trans-6-[3-(2-fluoro-4-trifluoromethyl-phenyl)-ureido]-3,4-dihydro-1H-isoquinoline-2-carboxylic acid 4-carboxymethyl-cyclohexyl ester]",≥ 50
16,"O=C(O)C[C@H]1CC[C@H](OC(=O)N2CCc3cc(NC(=O)Nc4ccccc4C(F)(F)F)ccc3C2)CC1 [Example 17, trans-6-[3-(2-trifluoromethyl-phenyl)-ureido]-3,4-dihydro-1H-isoquinoline-2-carboxylic acid 4-carboxymethyl-cyclohexyl ester]",≥ 50
17,"O=C(O)C[C@H]1CC[C@H](OC(=O)N2CCc3cc(NC(=O)Nc4ccc(F)cc4C(F)(F)F)ccc3C2)CC1 [Example 18, trans-6-[3-(4-fluoro-2-trifluoromethyl-phenyl)-ureido]-3,4-dihydro-1H-isoquinoline-2-carboxylic acid 4-carboxymethyl-cyclohexyl ester]",≥ 50
18,"COc1ccc(NC(=O)Nc2ccc3c(c2)CCN(C(=O)O[C@H]2CC[C@H](CC(=O)O)CC2)C3)c(C)c1 [Example 19, trans-6-[3-(4-methoxy-2-methyl-phenyl)-ureido]-3,4-dihydro-1H-isoquinoline-2-carboxylic acid 4-carboxymethyl-cyclohexyl ester]",≥ 50
19,"Cc1ccc(NC(=O)Nc2ccc3c(c2)CCN(C(=O)O[C@H]2CC[C@H](CC(=O)O)CC2)C3)c(Cl)c1 [Example 20, trans-6-[3-(2-chloro-4-methyl-phenyl)-ureido]-3,4-dihydro-1H-isoquinoline-2-carboxylic acid 4-carboxymethyl-cyclohexyl ester]",≥ 50
20,"O=C(O)C[C@H]1CC[C@H](OC(=O)N2CCc3cc(NC(=O)Nc4cccc(C(F)(F)F)c4F)ccc3C2)CC1 [Example 21, trans-6-[3-(2-fluoro-3-trifluoromethyl-phenyl)-ureido]-3,4-dihydro-1H-isoquinoline-2-carboxylic acid 4-carboxymethyl-cyclohexyl ester]",≥ 50
21,"O=C(O)C[C@H]1CC[C@H](OC(=O)N2CCc3cc(NC(=O)Nc4cc(C(F)(F)F)ccc4F)ccc3C2)CC1 [Example 22, trans-6-[3-(2-fluoro-5-trifluoromethyl-phenyl)-ureido]-3,4-dihydro-1H-isoquinoline-2-carboxylic acid 4-carboxymethyl-cyclohexyl ester]",≥ 50
22,"Cc1ccc(NC(=O)Nc2ccc3c(c2)CCN(C(=O)O[C@H]2CC[C@H](CC(=O)O)CC2)C3)c(C)c1 [Example 23, trans-6-[3-(2,4-dimethyl-phenyl)-ureido]-3,4-dihydro-1H-isoquinoline-2-carboxylic acid 4-carboxymethyl-cyclohexyl ester]",≥ 50
23,"O=C(O)C[C@H]1CC[C@H](OC(=O)N2CCc3cc(NC(=O)Nc4ccc(Cl)cc4Cl)ccc3C2)CC1 [Example 24, trans-6-[3-(2,4-dichloro-phenyl)-ureido]-3,4-dihydro-1H-isoquinoline-2-carboxylic acid 4-carboxymethyl-cyclohexyl ester]",≥ 50
24,"O=C(O)C[C@H]1CC[C@H](OC(=O)N2CCc3cc(NC(=O)Nc4c(F)cccc4C(F)(F)F)ccc3C2)CC1 [Example 25, trans-6-[3-(2-fluoro-6-trifluoromethyl-phenyl)-ureido]-3,4-dihydro-1H-isoquinoline-2-carboxylic acid 4-carboxymethyl-cyclohexyl ester]",≥ 50
